Results from ChEMBL document CHEMBL1136327, “Synthesis of a highly active new anti-HIV agent 2',3'-didehydro-3'-deoxy-4'-ethynylthymidine” (Bioorg Med Chem Lett, 2003).

Experiments:
[1] = system: Human immunodeficiency virus 1; experiment: Inhibitory activity against HIV-1 IIIB to achieve 50% protection of MT-2 cells; format: functional, organism-based; conditions: Human immunodeficiency virus 1, MT2
MT2 = experiment: Cytotoxic concentration required to reduce the viability of mock-infected MT-2 cells by 50%; format: functional; conditions: Homo sapiens

Compound	IC50 [1]	CC50 (MT2)
C#C[C@@]1(CO)C=C[C@H](n2cc(C)c(=O)[nH]c2=O)O1 [CENSAVUDINE]	0.2 µM	> 100 µM
Cc1cn([C@H]2C=C[C@@H](CO)O2)c(=O)[nH]c1=O [STAVUDINE]	2.8 µM	100 µM
C=C[C@@]1(CO)C=C[C@H](n2cc(C)c(=O)[nH]c2=O)O1	> 100 µM	> 100 µM
Cc1cn([C@H]2C=C[C@@](C)(CO)O2)c(=O)[nH]c1=O	> 100 µM	> 100 µM
